Source: patent US20220079888A1, “PRE-NATAL BETA-CRYPTOXANTHIN BENEFITS CHILDREN” (AGENCY FOR SCIENCE, TECHNOLOGY AND RESEARCH (A*STAR), priority 2019, published 2022)

System: infants at 24 months
Experiment: Associations of maternal plasma carotenoids concentrations with Bayley Scales of Infant and Toddler Development-III (BSID-III) scores, GUSTO cohort, linear regression
Type: in vivo, human
Settings: for Cognitive β (95% CI) / Expressive Language β (95% CI) / Fine motor β (95% CI) / Gross motor β (95% CI) / Receptive language β (95% CI): per SD increment in log-transformed maternal plasma concentration
Description: The Bayley Scales of Infant and Toddler Development, 3rd edition (BSID-III) 2006 was administered to infants at 24 (±1) months, in their homes when infants were likely to be alert. This is a standardized test that assesses development of children 1-42 months of age in the following domains: cognitive, receptive and expressive language, and fine and gross motor skills. The test was administered in English, Chinese, Malay or Tamil languages depending on the child's dominant language.
Data for the present analysis were from the Growing Up in Singapore Towards healthy Outcomes (GUSTO) study a prospective mother-offspring cohort in Singapore (34). Detailed descriptions of the GUSTO study have been published Soh, et al 2014 Int. J Epidemiology 43(5):1401-9, which is hereby incorporated by reference. In brief, pregnant women (≥18 years) in their first trimester (<14 weeks) were recruited from the National University Hospital (NUH) and KK Women's and Children's Hospital (KKH) between June 2009 and September 2010. To be eligible for the study, the pregnant person had to: 1) be a Singapore citizen or permanent residents of Chinese, Malay or Indian ethnicity with homogenous parental ethnic background; 2) have an intention to deliver in the two hospitals and to reside in Singapore for the next five years; and 3) consent to donate birth tissues at delivery. Women receiving chemotherapy, psychotropic drugs or were diagnosed with type-1 diabetes were not eligible to participate. The GUSTO study has received ethical approval from the Institutional Review Board of NUH and KKH, and all procedures were conducted according to the guidelines laid down in the Declaration of Helsinki. Written informed consent was obtained from all participants at study recruitment.
A total of 1247 pregnant women participated at baseline. The present analysis included pregnant women who had singleton live births (n=1237), in whom plasma carotenoids concentrations were analyzed (n=701), and their offspring completed neurocognitive assessments at 24 months (n=361).
Administration and scoring was performed by research coordinators trained by the head psychologist from KKH in accordance to the manual. Raw test scores were used as age-specific norms were not available for our population.
Maternal plasma concentrations of individual carotenoids were summarized according to maternal and infant characteristics for the 419 mother-offspring pairs with data for the cognitive test. Differences in concentrations between groups were compared using non-parametric analyses Wilcoxon rank-sum and Kruskal-Wallis tests, as data were not normally distributed. Bonferroni post hoc analysis was performed to identify groups which differed if the Kruskal Wallis test was significant. The values for individual maternal plasma carotenoids were log-transformed, then converted to standard deviation scores (SDS) for easier interpretation. The BSID-III raw scores were also converted to SDS to facilitate comparison across the cognitive tests and domain scales.
Associations of each maternal plasma carotenoids with each BSID-III scale in the children were examined using linear regressions. Several statistical models were employed: Model 1 basic model with adjustment for infant's exact age at cognitive testing; Model 2 additional adjustment for maternal age, ethnicity, education, pre-pregnancy BMI, antenatal depression and anxiety levels (potential confounders). We considered Model 2 to be the main model. Further adjustment for infant gestational age, birth weight and breastfeeding duration was performed to examine if any associations found were acting through these factors (Model 3).
Missing data for covariates were imputed using multiple imputation technique with chained equations (20 times) for the following confounding variables: n=3 maternal education, n=7 EPDS, n=21 STAI, n=40 maternal pre-pregnancy BMI, n=5 infant birthweight and n=10 breastfeeding duration. […]

[1] = Model 1 (adjusted for infant's age at testing), BSID-III at 24 months, n = 361
[2] = Model 1, BSID-III at 24 months, n = 361
[3] = Model 2 (Model 1 plus maternal age, ethnicity, education, pre-pregnancy BMI, parity, antenatal depression and anxiety), 24 months
[4] = Model 2 (adjusted for confounders), 24 months
[5] = Model 3 (Model 2 plus infant gestational age, birth weight, breastfeeding duration), 24 months
[6] = Model 3 (also adjusted for potential mediators), 24 months

Structure (SMILES)	Cognitive β (95% CI) [1]	Expressive Language β (95% CI) [2]	Fine motor β (95% CI) [2]	Gross motor β (95% CI) [2]	Receptive language β (95% CI) [2]	Cognitive β (95% CI) [3]	Expressive Language β (95% CI) [4]	Fine motor β (95% CI) [4]	Gross motor β (95% CI) [4]	Receptive language β (95% CI) [4]	Cognitive β (95% CI) [5]	Expressive Language β (95% CI) [6]	Fine motor β (95% CI) [6]	Gross motor β (95% CI) [6]	Receptive language β (95% CI) [6]	association of higher maternal concentrations with performance in expressive language (24 months, result in words)	association of higher maternal concentrations with receptive language (24 months, result in words)	Expressive Language β (95% CI) (Model 2 (adjusted for confounders), 24 months, listed as lycopene)	association of higher maternal concentrations with cognitive development in infants (BSID-III scales at 24 months, after adjustment for confounders, result in words)
CC1=C[C@H](O)CC(C)(C)[C@H]1/C=C/C(C)=C/C=C/C(C)=C/C=C/C=C(C)/C=C/C=C(C)/C=C/C1=C(C)C[C@@H](O)CC1(C)C [Lutein, lutein]	0.03 SD	0.004 SD	0.01 SD	0.03 SD	0.08 SD	−0.08 SD	−0.09 SD	0.02 SD	−0.02 SD	−0.04 SD	−0.11 SD	−0.12 SD	−0.04 SD	−0.04 SD	−0.08 SD				
CC(C)=CCC/C(C)=C/C=C/C(C)=C/C=C/C(C)=C/C=C/C=C(C)/C=C/C=C(C)/C=C/C=C(\C)CCC=C(C)C [Lycopene, lycopene]	0.14 SD	0.15 SD	0.04 SD	0.09 SD	0.11 SD	0.12 SD	0.15 SD	0.03 SD	0.08 SD	0.09 SD	0.11 SD	0.14 SD	0.02 SD	0.09 SD	0.07 SD	associated with better performance	not with receptive language	0.15 SD	
CC1=C(/C=C/C(C)=C/C=C/C(C)=C/C=C/C=C(C)/C=C/C=C(C)/C=C/C2=C(C)C[C@@H](O)CC2(C)C)C(C)(C)C[C@H](O)C1 [Zeaxanthin, zeaxanthin]	0.01 SD	−0.09 SD	0.04 SD	0.02 SD	−0.10 SD	0.05 SD	−0.05 SD	0.05 SD	0.04 SD	−0.05 SD	0.05 SD	−0.04 SD	0.05 SD	0.05 SD	−0.04 SD				
CC1=CCCC(C)(C)C1/C=C/C(C)=C/C=C/C(C)=C/C=C/C=C(C)/C=C/C=C(C)/C=C/C1=C(C)CCCC1(C)C (stereo not drawn) [α-carotene]	0.06 SD	0.10 SD	0.08 SD	0.08 SD	0.09 SD	−0.01 SD	0.06 SD	0.06 SD	0.06 SD	0.002 SD	−0.04 SD	0.02 SD	0.05 SD	0.04 SD	−0.04 SD				
CC1=C(/C=C/C(C)=C/C=C/C(C)=C/C=C/C=C(C)/C=C/C=C(C)/C=C/C2=C(C)CCCC2(C)C)C(C)(C)CCC1 [β-carotene]	0.22 SD	0.18 SD	0.14 SD	0.15 SD	0.23 SD	0.16 SD	0.14 SD	0.12 SD	0.14 SD	0.15 SD	0.13 SD	0.10 SD	0.10 SD	0.12 SD	0.11 SD				
CC1=C(/C=C/C(C)=C/C=C/C(C)=C/C=C/C=C(C)/C=C/C=C(C)/C=C/C2=C(C)C[C@@H](O)CC2(C)C)C(C)(C)CCC1 [β-cryptoxanthin]	0.21 SD	0.15 SD	0.17 SD	0.17 SD	0.21 SD	0.18 SD	0.13 SD	0.16 SD	0.16 SD	0.17 SD	0.18 SD	0.12 SD	0.15 SD	0.15 SD	0.16 SD				most consistently associated with better cognitive development
